# Laboratory results: paper PMC7199514 (Frontiers in Chemistry, 2020)
# Key:
# A549 cells = test: MTT antiproliferation assay, A549; settings: read-out: IC50 to cell lines, A549, exposed to tested compounds for 48 h
# Method: (§2) The cancer cell lines HeLa, A549, MCF-7, and A431 were obtained from the Center for Cell Resource of Peking Union Medical College Hospital, except that A549 cisplatin-resistant subline A549/DDP was obtained by incubation of increased concentration of cisplatin in the culture media until the IC50 value toward cisplatin was above three times of that of A549 cells. The cells were maintained in DMEM (Invitrogen, USA) media supplemented with 10% fetal calf serum (HyClone, USA), 1% PS at 310 K with 5% CO2. The IC50 values were determined using 3-(4,5-dimethyl-2-thiazolyl)-2,5-diphenyl-2-H-tetrazolium bromide (MTT) assay. […] Then cells were exposed to each tested compound at eight concentrations for 48 h. The resulting solution was removed and washed for two times using PBS; then 100 μl cell culture medium containing MTT (0.5 mg/ml) was added to the wells and incubated at 310 K for 4 h. Finally, the MTT media was removed and 100 μl DMSO added to each well to dissolve the formazan crystals. The optical density (OD) values were measured using a microplate reader (SpectraMax M5) at the wavelength of 570 nm. […] The IC50 value was calculated in Origin 8.0 using the logistic regression model. All reported values were averages of six independent experiments and expressed as mean ± standard deviation (SD).
# A431 cells = test: MTT antiproliferation assay, A431; settings: read-out: IC50 to cell lines, A431, exposed to tested compounds for 48 h
# Method: as §2
# HeLa cells = test: MTT antiproliferation assay, HeLa; settings: read-out: IC50 to cell lines, HeLa, exposed to tested compounds for 48 h
# Method: as §2
# MCF-7 cells = test: MTT antiproliferation assay, MCF-7; settings: read-out: IC50 to cell lines, MCF-7, exposed to tested compounds for 48 h
# Method: as §2
# [1] = tested on: A549 cisplatin-resistant subline A549/DDP; test: MTT antiproliferation assay, A549/DDP; settings: read-out: IC50 to cell lines, A549/DDP, exposed to tested compounds for 48 h
# Method: as §2
# [2] = target: T1, EGFR (kinase domain only) (Homo sapiens, UniProt P00533); test: EGFR inhibition by ELISA; format: biochemical; settings: ELISA in the presence of 200 μM of ATP
# T1 construct: mixed with as-prepared EGFR (kinase domain only) solution; purchased Cell Signaling Technology, Inc. (assay kit); 7909
# Method: Enzyme-linked immunosorbent assay (ELISA) was employed to evaluate the inhibition of compounds against EGFR. The ELISA screening was performed following the instruction provided by the supplier of the assay kits (no. 7909, Cell Signaling Technology, Inc.). An aliquot (10 μl) of the enzyme solution was added to 415 μl dithiothreitol (DTT) kinase buffer, which consists of 1.25 M DTT and 4 × HTScan® tyrosine kinase buffer [240 mM HEPES (pH 7.5), 20 mM MgCl2, 20 mM MnCl2, and 12 μM Na3VO4]. Each tested Pt compound was dissolved in dimethyl sulfoxide (DMSO) to give a 4 mM solution which was then diluted by deionized water prior to use. The ATP/peptide mixture was prepared by addition of 10 μl of 2.5 mM ATP to 125 μl of 6 μM substrate peptide and then diluted with D2O to 250 μl. An aliquot (12.5 μl) of the solution of a tested compound was mixed with as-prepared EGFR (kinase domain only) solution [12.5 μl, in 50% glycerol, containing 50 mM HEPES (pH = 7.6), 150 mM NaCl, 0.1% Triton, and 1 mM DTT, Sigma Chemical Company] and incubated at 298 K for 5 min, followed by addition of 25 μl of ATP/substrate mixture, and then the resulting mixture was incubated at 310 K for 1 h. The phosphorylation reaction was terminated by the addition of 50 μl/well stop buffer (50 mM EDTA, pH = 8). Each well of a microtiter plate was coated with 100 μl of 10 μg/ml streptavidin (Tianjin Biotechnology Co. Ltd., China) in carbonate–bicarbonate buffer and incubated overnight at 277 K and then blocked with 1.5% bovine serum albumin (BSA, Xinjingke Biotechnology Co. Ltd., China) in PBS/T (PBS solution containing 0.05% Tween-20) at 310 K for 2 h, followed by three times of washing with PBS/T prior to use. Then, 25 μL/well of each enzymatic reaction mixture and 75 μL/well of D2O were added to the plate (in triplicate) for incubation at 310 K for 1 h. Following three times of washing with PBS/T, 100 μl of primary antibody (phospho-tyrosine mouse mAb, 1:1,000 in PBS/T with 1.5% BSA) was added to each well, and the plate was incubated at 310 K for another 1 h. The plate was again washed three times with PBS/T, and then 100 μl of the secondary antibody (HRP-labeled goat anti-mouse IgG, from Zhongshan Golden Bridge Biotechnology Co. Ltd., China, diluted 1:1,000 in PBS/T with 1.5% BSA) was added to each well and incubated for 1 h at 310 K, followed by three times of washing with PBS/T. Finally, 100 μl of 3,3′,5,5′-tetramethylbenzidine (TMB, Xinjingke Biotechnology Co. Ltd., China) substrate was added to each well, and the plate was incubated at 310 K for 15 min, and then the reaction was stopped by addition of 100 μl of 2 M H2SO4 to each well, and the plate was read on the ELISA plate reader (SpectraMax M5 Molecular Devices Corporation) at 450 nm to determine the OD values. […]
# calf thymus DNA (ct-DNA) [3] = test: Competitive displacement of EB from ct-DNA by fluorescence titration (intercalation); format: binding; settings: Tris-HCl pH 7.4, 310 K, λex = 500 nm
# Method: (§1) Complexes 2 and 4 were dissolved in DMSO to yield a panel of 0.25, 0.5, 1.0, 1.5, 2.0, 3.0, 4.0, and 5.0 mM solutions. The calf thymus DNA (ct-DNA) was dissolved in Tris-HCl buffer (pH = 7.4) to give a […] solution. Ethidium bromide (EB) (10 mM, 2 μl) or Hoechst 33342 (4 mM, 5 μl) and ct-DNA ([…], 978 or 975 μl) was incubated at 310 K for 0.5 h. Then the DMSO solution of complexes (20 μl) was added to the resulting solution and kept incubated. After 2 h, each reaction mixture was measured on an F-4500 fluorescence spectrophotometer (HITACHI) with excitation wavelength at 500 nm and emission spectra from 520 to 700 nm for EB mixed solution and excitation wavelength at 370 nm and emission spectra from 400 to 650 nm for Hoechst 33342 mixed solution. A modified Stern–Volmer plot (Sarwar et al., [2015]) was employed to evaluate the affinity of complexes toward DNA.
# calf thymus DNA (ct-DNA) [4] = test: Competitive displacement of Hoechst 33342 from ct-DNA by fluorescence titration (minor groove binding); settings: for affinity in minor groove binding relative to intercalation with DNA: Ksv Hoechst vs Ksv EB; for Ksv (Stern–Volmer quenching constant), replacing Hoechst from ct-DNA: Tris-HCl pH 7.4, 310 K, λex = 370 nm
# Method: as §1
# T1 sequence (P00533 712-979 limits assumed): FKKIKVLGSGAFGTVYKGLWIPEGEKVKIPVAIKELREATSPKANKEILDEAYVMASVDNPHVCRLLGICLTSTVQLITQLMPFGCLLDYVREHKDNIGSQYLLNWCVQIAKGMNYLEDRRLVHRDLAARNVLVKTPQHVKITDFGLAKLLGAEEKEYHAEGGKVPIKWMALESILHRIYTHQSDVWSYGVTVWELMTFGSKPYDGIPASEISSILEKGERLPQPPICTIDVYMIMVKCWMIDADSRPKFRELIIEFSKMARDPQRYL
SMILES,IC50 (A549 cells),IC50 (A431 cells),IC50 (HeLa cells),IC50 (MCF-7 cells),IC50 [1],IC50 [2],"Ksv (Stern–Volmer quenching constant), replacing EB from ct-DNA (calf thymus DNA (ct-DNA) [3])",affinity in minor groove binding relative to intercalation with DNA (calf thymus DNA (ct-DNA) [4]),"Ksv (Stern–Volmer quenching constant), replacing Hoechst from ct-DNA (calf thymus DNA (ct-DNA) [4])"
"N.N.[Cl][Pt][Cl] [Cisplatin, reference compound]",10.1 ± 1.6 µM,11.1 ± 0.4 µM,12.9 ± 0.6 µM,15.6 ± 0.8 µM,30.9 ± 1.1 µM,–,–,–,–
COc1cc2ncnc(Nc3ccc(F)c(Cl)c3)c2cc1OCCn1cc[n+]([Pt-2]23[n+]4ccccc4-c4cc(-c5ccc(C)cc5)cc([n+]42)-c2cccc[n+]23)c1.F[P-](F)(F)(F)(F)F.F[P-](F)(F)(F)(F)F [Complex 1],13.2 ± 1.8 µM,7.7 ± 1.8 µM,29.8 ± 5 µM,20.3 ± 2.7 µM,28.9 ± 1.7 µM,0.0092 ± 0.0006 µM,–,–,–
COc1cc2ncnc(Nc3ccc(F)c(Cl)c3)c2cc1OCCCn1cc[n+]([Pt-2]23[n+]4ccccc4-c4cc(-c5ccc(C)cc5)cc([n+]42)-c2cccc[n+]23)c1.F[P-](F)(F)(F)(F)F.F[P-](F)(F)(F)(F)F [Complex 2],6.5 ± 2.5 µM,1.4 ± 0.4 µM,19.4 ± 5.6 µM,27.7 ± 2.2 µM,13.5 ± 1.8 µM,0.007 ± 0.003 µM,25900 M⁻¹,~ 10 times,313000 M⁻¹
COc1cc2ncnc(Nc3ccc(F)c(Cl)c3)c2cc1OCCn1cc[n+]([Pt-2]23[n+]4ccccc4-c4cc(-c5ccc(Br)cc5)cc([n+]42)-c2cccc[n+]23)c1.F[P-](F)(F)(F)(F)F.F[P-](F)(F)(F)(F)F [Complex 3],12.2 ± 2.2 µM,7.4 ± 0.4 µM,13.4 ± 1.3 µM,24.8 ± 1.1 µM,32 ± 1.6 µM,0.0109 ± 0.003 µM,–,–,–
COc1cc2ncnc(Nc3ccc(F)c(Cl)c3)c2cc1OCCCn1cc[n+]([Pt-2]23[n+]4ccccc4-c4cc(-c5ccc(Br)cc5)cc([n+]42)-c2cccc[n+]23)c1.F[P-](F)(F)(F)(F)F.F[P-](F)(F)(F)(F)F [Complex 4],11.6 ± 1.1 µM,7.9 ± 3.2 µM,39.4 ± 0.1 µM,19.9 ± 2.7 µM,26.6 ± 3 µM,0.0096 ± 0.0025 µM,18900 M⁻¹,~ 10 times,311000 M⁻¹
